In ChEMBL document CHEMBL1614632, “Trend analysis of a database of intravenous pharmacokinetic parameters in humans for 670 drug compounds” (Drug Metab Dispos, 2008):

Key:
[1] = clinical; conditions: human, in vivo, iv, t1/2
[2] = clinical; conditions: human, in vivo, iv
[3] = clinical; conditions: human, in vivo, iv, Vdss
[4] = clinical; conditions: human, in vivo, iv, CL

Compound | half-life [1] [h] | MRT [2] [h] | Vd [3] [L/kg] | clearance [4] [L/h/kg]
CO[C@H]1/C=C/O[C@@]2(C)Oc3c(C)c(O)c4c(c3C2=O)C2=NC3(CCN(CC(C)C)CC3)NC2=C(NC(=O)/C(C)=C\C=C\[C@H](C)[C@H](O)[C@@H](C)[C@@H](O)[C@@H](C)[C@H](OC(C)=O)[C@@H]1C)C4=O [RIFABUTIN] | 37 | 65 | 9.3 | 0.144
CN(C)CCc1c[nH]c2ccc(Cn3cncn3)cc12 [RIZATRIPTAN] | 2.2 | 1.98 | 1.9 | 0.96
CN(C(=O)c1c(O)c2ccccc2n(C)c1=O)c1ccccc1 [ROQUINIMEX] | 31 | 43 | 0.21 | 0.00492
CC(C)c1nc(N(C)S(C)(=O)=O)nc(-c2ccc(F)cc2)c1/C=C/[C@@H](O)C[C@@H](O)CC(=O)O [ROSUVASTATIN] | 2 | 2.6 | 1.7 | 0.66
CN(CC(N)=O)C(=O)N(CCCl)N=O [SARCNU] | 1 | 1.4 | 0.76 | 0.54
C#CCN(C)[C@H](C)Cc1ccccc1 [SELEGILINE] | 1.3 | 1.6 | 1.9 | 1.2
CCN(CC)CCNC(=O)c1ccc(NS(C)(=O)=O)cc1 [SEMATILIDE] | 3.8 | 3.7 | 0.82 | 0.222
N[C@@H]1CN(c2c(F)cc3c(=O)c(C(=O)O)cn([C@@H]4C[C@@H]4F)c3c2Cl)CC12CC2 [SITAFLOXACIN ANHYDROUS] | 6.6 | 6.7 | 1.5 | 0.222
N[C@@H](CC(=O)N1CCn2c(nnc2C(F)(F)F)C1)Cc1cc(F)c(F)cc1F [SITAGLIPTIN] | 12 | 7.78 | 2.8 | 0.36
C[C@@H]1CN(c2c(F)c(N)c3c(=O)c(C(=O)O)cn(C4CC4)c3c2F)C[C@H](C)N1 [SPARFLOXACIN] | 20 | 24 | 3.9 | 0.162
CN[C@@H]1[C@H](O)[C@H](NC)[C@H]2O[C@@]3(O)C(=O)C[C@@H](C)O[C@H]3O[C@@H]2[C@H]1O [SPECTINOMYCIN] | 1.8 | 2.2 | 0.13 | 0.0594
CC(C)[C@@H](CC[C@@H](C)[C@H]1CC[C@H]2[C@@H]3[C@H](O)C[C@H]4C[C@@H](NCCCNCCCCN)CC[C@]4(C)[C@H]3CC[C@]12C)OS(=O)(=O)O [SQUALAMINE] | 9.5 | 3.2 | 0.23 | 0.072
Nc1ccc(S(=O)(=O)Nc2ncccn2)cc1 [SULFADIAZINE] | 7 | 8.8 | 0.29 | 0.033
CC(C(=O)O)c1ccc(C(=O)c2cccs2)cc1 (centres undefined) [SUPROFEN] | 2.1 | 0.88 | 0.04 | 0.0456
C=CC[C@@H]1/C=C(\C)C[C@H](C)C[C@H](OC)[C@H]2O[C@@](O)(C(=O)C(=O)N3CCCC[C@H]3C(=O)O[C@H](/C(C)=C/[C@@H]3CC[C@@H](O)[C@H](OC)C3)[C@H](C)[C@@H](O)CC1=O)[C@H](C)C[C@@H]2OC [TACROLIMUS ANHYDROUS] | 26 | 27 | 1.2 | 0.042
CC(C)(C)NCC(O)COc1ccc(NC(=O)NC2CCCCC2)cc1 (centres undefined) [TALINOLOL] | 11 | 11 | 3.3 | 0.294
CCOc1ccccc1OCCN[C@H](C)Cc1ccc(OC)c(S(N)(=O)=O)c1 [TAMSULOSIN] | 6.8 | 5.6 | 0.21 | 0.0372
CCCCCNC(=N)N/N=C/c1c[nH]c2ccc(OC)cc12 [TEGASEROD] | 11 | 4.9 | 5.3 | 1.08
CO[C@H]1C[C@@H]2CC[C@@H](C)[C@@](O)(O2)C(=O)C(=O)N2CCCC[C@H]2C(=O)O[C@H]([C@H](C)C[C@@H]2CC[C@@H](OC(=O)C(C)(CO)CO)[C@H](OC)C2)CC(=O)[C@H](C)/C=C(\C)[C@@H](O)[C@@H](OC)C(=O)[C@H](C)C[C@H](C)/C=C/C=C/C=C/1C [TEMSIROLIMUS] | 18 | 10 | 3 | 0.462
CC(C)(C)NCC(O)c1cc(O)cc(O)c1 (centres undefined) [TERBUTALINE] | 15 | 7.4 | 1.5 | 0.204
CC(CC(c1ccccc1)c1ccccc1)NC(C)(C)C (centres undefined) [TERODILINE] | 56 | 81 | 5.1 | 0.066
CCO[C@@H](Cc1ccc(OCCc2ccc(OS(C)(=O)=O)cc2)cc1)C(=O)O [TESAGLITAZAR] | 45 | 56 | 0.13 | 0.00234
S=P(N1CC1)(N1CC1)N1CC1 [THIOTEPA] | 2.7 | 4 | 1.6 | 0.402

Compound | half-life [1] [h] | MRT [2] [h] | Vd [3] [L/kg] | clearance [4] [L/h/kg]
Cc1ccsc1C(=CCCN1CCC[C@@H](C(=O)O)C1)c1sccc1C [TIAGABINE] | 10 | 12 | 1.1 | 0.096
CC(C)(C)NC[C@H](O)COc1nsnc1N1CCOCC1 [TIMOLOL] | 2.2 | 3 | 1.5 | 0.51
CCS(=O)(=O)CCn1c([N+](=O)[O-])cnc1C [TINIDAZOLE] | 13 | 16 | 0.59 | 0.036
Clc1ccc2nsnc2c1NC1=NCCN1 [TIZANIDINE] | 2.4 | 3.6 | 2.4 | 0.66
Cc1cccc(C)c1NC(=O)C(C)N (centres undefined) [TOCAINIDE] | 12 | 14 | 1.8 | 0.132
Cc1ccc(O)c([C@H](CCN(C(C)C)C(C)C)c2ccccc2)c1 [TOLTERODINE] | 2.4 | 2.98 | 1.5 | 0.504
Cc1cccc(Nc2ccncc2S(=O)(=O)NC(=O)NC(C)C)c1 [TORSEMIDE] | 5.1 | 6.6 | 0.21 | 0.0318
COc1cc2c(cc1O)CCN[C@]21CS[C@@H]2c3c(OC(C)=O)c(C)c4c(c3[C@H](COC1=O)N1[C@@H]2[C@H]2c3c(cc(C)c(OC)c3O)C[C@@H]([C@@H]1O)N2C)OCO4 [TRABECTEDIN] | 44 | 35 | 25 | 0.72
COc1cccc(C2(O)CCCCC2CN(C)C)c1 (centres undefined) [TRAMADOL] | 5.8 | 7.2 | 2.8 | 0.39
NC[C@H]1CC[C@H](C(=O)O)CC1 [TRANEXAMIC ACID] | 2.3 | 2.6 | 0.38 | 0.144
O=c1n(CCCN2CCN(c3cccc(Cl)c3)CC2)nc2ccccn12 [TRAZODONE] | 7.3 | 6.2 | 0.52 | 0.084
COc1cc2c(N)nc(N3CCN(C(=O)OCC(C)(C)O)CC3)nc2c(OC)c1OC [TRIMAZOSIN] | 3.1 | 3.1 | 0.18 | 0.0576
CN1[C@@H]2CC[C@H]1C[C@@H](OC(=O)c1c[nH]c3ccccc13)C2 [TROPISETRON] | 5.6 | 6.3 | 9.7 | 1.56
CCCC[C@@H]1CC(=O)[C@]2(O)O[C@@H]3[C@@H](NC)[C@@H](O)[C@@H](NC)[C@H](O)[C@H]3O[C@@H]2O1 [TROSPECTOMYCIN] | 11 | 6.9 | 0.7 | 0.102
Nc1ccn([C@@H]2CO[C@H](CO)O2)c(=O)n1 [TROXACITABINE] | 82 | 6.9 | 1 | 0.144
CN[C@H](CC(C)C)C(=O)N[C@H]1C(=O)N[C@@H](CC(N)=O)C(=O)N[C@H]2C(=O)N[C@H]3C(=O)N[C@H](C(=O)N[C@H](C(=O)O)c4cc(O)cc(O)c4-c4cc3ccc4O)[C@H](O)c3ccc(c(Cl)c3)Oc3cc2cc(c3O[C@@H]2O[C@H](CO)[C@@H](O)[C@H](O)[C@H]2O[C@H]2C[C@](C)(N)[C@H](O)[C@H](C)O2)Oc2ccc(cc2Cl)[C@H]1O [VANCOMYCIN] | 6.5 | 6.9 | 0.54 | 0.078
CCOc1ccccc1OCC1CNCCO1 (centres undefined) [VILOXAZINE] | 4.1 | 5.8 | 0.73 | 0.126
CC[C@]1(O)C[C@H]2CN(CCc3c([nH]c4ccccc34)[C@@](C(=O)OC)(c3cc4c(cc3OC)N(C=O)[C@H]3[C@@](O)(C(=O)OC)[C@H](OC(C)=O)[C@]5(CC)C=CCN6CC[C@]43[C@@H]65)C2)C1 [VINCRISTINE] | 23 | 20 | 2.4 | 0.12
CC[C@]1(O)C[C@@H]2CN(CCc3c([nH]c4ccccc34)[C@@](C(=O)OC)(c3cc4c(cc3OC)N(C)[C@H]3[C@@](O)(C(N)=O)[C@H](O)[C@]5(CC)C=CCN6CC[C@]43[C@@H]65)C2)C1 [VINDESINE] | 35 | 38 | 5 | 0.132
O=C(NCCNCC(O)COc1ccc(O)cc1)N1CCOCC1 (centres undefined) [XAMOTEROL] | 7.7 | 3.6 | 0.64 | 0.18
CC(=O)N[C@H]1[C@H]([C@H](O)[C@H](O)CO)OC(C(=O)O)=C[C@@H]1N=C(N)N [ZANAMIVIR] | 1.7 | 2.4 | 0.23 | 0.096
O=C1Cc2cc(CCN3CCN(c4nsc5ccccc45)CC3)c(Cl)cc2N1 [ZIPRASIDONE] | 3.1 | 3.3 | 1 | 0.306
CN(C)CCc1c[nH]c2ccc(C[C@H]3COC(=O)N3)cc12 [ZOLMITRIPTAN] | 3.6 | 4.6 | 1.8 | 0.402
